According to BindingDB's records for patent US20240018140 (Merck Sharp & Dohme, 2024):
pEC50: −log10 of the molar value.

Target: T1, Ceramide glucosyltransferase (Homo sapiens, UniProt Q16739)
T1 sequence (Q16739 whole entry): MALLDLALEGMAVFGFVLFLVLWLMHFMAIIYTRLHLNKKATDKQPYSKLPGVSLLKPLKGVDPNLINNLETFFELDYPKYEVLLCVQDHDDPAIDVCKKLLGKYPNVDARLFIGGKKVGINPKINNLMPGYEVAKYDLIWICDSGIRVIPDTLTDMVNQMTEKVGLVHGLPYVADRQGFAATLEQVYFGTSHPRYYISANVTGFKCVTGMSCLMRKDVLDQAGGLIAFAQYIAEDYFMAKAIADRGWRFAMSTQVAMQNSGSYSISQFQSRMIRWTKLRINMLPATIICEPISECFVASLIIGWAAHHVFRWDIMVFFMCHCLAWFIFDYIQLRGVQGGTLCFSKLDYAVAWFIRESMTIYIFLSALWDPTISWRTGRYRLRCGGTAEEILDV
Assay: UDP-Glo Glucosylceramide Synthase Biochemical Assay
Procedure: Using Promega's UDP-Glo Glycosyltransferase assay kit (Promega Corporation, Madison, WI, USA (Promega)), GCS activity was indirectly measured by detecting the amount of UDP produced. An aliquot of GCS enzyme (1.5 μg crude golgi preparation, total protein) and titrated test compound were aliquoted to each well and incubated for 30 minutes at room temperature. […] An equivalent volume of substrate mixture was then added to each well. Following a 20 h incubation at room temperature to allow for GCS turnover of substrate, an equal volume of UDP detection reagent (Promega) was added to each well and incubated for an additional 75 minutes at room temperature to simultaneously convert the accumulated UDP product into ATP and generate light in a luciferase reaction. The generated light was detected using a luminometer.

Compound | pEC50
COCC1(NC(=O)c2cn3cc(Cl)cc(-c4ccccc4OCC(F)(F)F)c3n2)CC1 [US20240018140, Compound 6] | 8.62
CN1CCN(C(=O)c2cn3cc(Cl)cc(-c4ccccc4OCC(F)(F)F)c3n2)CC1(C)C [US20240018140, Compound 7] | 8.92
